Earlier results, collected in publication PMC6698915 (Cancer chemotherapy and pharmacology, 2015).

Test system: patients with locally advanced (M0) head and neck cancer
Settings: with cisplatin and docetaxel 75 mg/m^2 q21 days, pegfilgrastim, previously untreated; cited from earlier work

SMILES: CO[C@H]1C[C@@H]2CC[C@@H](C)[C@@](O)(O2)C(=O)C(=O)N2CCCC[C@H]2C(=O)O[C@H]([C@H](C)C[C@@H]2CC[C@@H](OCCO)[C@H](OC)C2)CC(=O)[C@H](C)/C=C(\C)[C@@H](O)[C@@H](OC)C(=O)[C@H](C)C[C@H](C)/C=C/C=C/C=C/1C [everolimus]
- escalation to full dose of daily everolimus: not possible to escalate to full dose of daily everolimus due to dose-limiting neutropenia
